# Key:
# [1] = target: Sodium-dependent serotonin transporter (Homo sapiens, UniProt P31645); assay: Binding affinity to SERT receptor (unknown origin) assessed as inhibition constant
# [2] = target: D(4) dopamine receptor (Homo sapiens, UniProt P21917); assay: Binding affinity to D4 receptor (unknown origin) assessed as inhibition constant
# [3] = target: T1, Alpha-1B adrenergic receptor (Homo sapiens) (UniProt P35368); assay: Inhibition of alpha1B receptor (unknown origin); conditions: concentration not given here
# T1 sequence (whole entry): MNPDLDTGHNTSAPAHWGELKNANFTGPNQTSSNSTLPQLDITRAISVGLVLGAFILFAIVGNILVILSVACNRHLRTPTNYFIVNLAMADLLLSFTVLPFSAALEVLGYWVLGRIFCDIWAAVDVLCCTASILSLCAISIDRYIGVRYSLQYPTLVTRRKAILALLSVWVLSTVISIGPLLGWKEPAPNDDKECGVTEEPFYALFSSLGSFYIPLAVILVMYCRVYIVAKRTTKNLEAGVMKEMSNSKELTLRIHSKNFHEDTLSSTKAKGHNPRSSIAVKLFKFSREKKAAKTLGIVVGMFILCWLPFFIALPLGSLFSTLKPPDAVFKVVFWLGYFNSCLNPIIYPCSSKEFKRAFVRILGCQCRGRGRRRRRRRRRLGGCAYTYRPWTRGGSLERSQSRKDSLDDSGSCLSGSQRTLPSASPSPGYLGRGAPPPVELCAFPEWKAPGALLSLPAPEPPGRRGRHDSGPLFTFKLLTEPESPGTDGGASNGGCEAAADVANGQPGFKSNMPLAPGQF
# [4] = target: 5-hydroxytryptamine receptor 3A (Homo sapiens, UniProt P46098); assay: Binding affinity to 5HT3 receptor (unknown origin) assessed as inhibition constant
# [5] = target: D(3) dopamine receptor (Homo sapiens, UniProt P35462); assay: Binding affinity to D3 receptor (unknown origin) assessed as inhibition constant
# [6] = target: T2, Beta-1 adrenergic receptor (Homo sapiens, UniProt P08588); assay: Inhibition of beta1 receptor (unknown origin); conditions: concentration not given here
# Target sequence in this assay (P08588 whole entry, looked up): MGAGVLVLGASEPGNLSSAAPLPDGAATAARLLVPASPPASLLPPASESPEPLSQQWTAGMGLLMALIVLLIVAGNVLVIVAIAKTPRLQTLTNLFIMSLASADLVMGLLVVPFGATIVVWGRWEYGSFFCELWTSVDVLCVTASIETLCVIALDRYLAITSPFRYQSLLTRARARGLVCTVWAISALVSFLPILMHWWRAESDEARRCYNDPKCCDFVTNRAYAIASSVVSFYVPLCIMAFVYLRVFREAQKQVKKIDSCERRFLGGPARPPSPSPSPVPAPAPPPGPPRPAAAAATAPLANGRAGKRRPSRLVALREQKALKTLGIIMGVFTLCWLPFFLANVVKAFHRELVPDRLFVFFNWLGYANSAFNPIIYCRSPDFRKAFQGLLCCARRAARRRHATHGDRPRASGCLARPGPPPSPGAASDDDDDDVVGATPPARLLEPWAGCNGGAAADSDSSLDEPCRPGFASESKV
# [7] = target: 5-hydroxytryptamine receptor 3A (Homo sapiens) (UniProt P46098); assay: Inhibition of 5HT3 receptor (unknown origin); conditions: concentration not given here
# [8] = target: Sigma non-opioid intracellular receptor 1 (Homo sapiens, UniProt Q99720); assay: Inhibition of sigma 1 receptor (unknown origin); conditions: concentration not given here
# [9] = target: T2, Beta-1 adrenergic receptor; assay: Binding affinity to beta1 receptor (unknown origin) assessed as inhibition constant
# Target sequence in this assay (P08588 whole entry): as the sequence (P08588 whole entry, looked up) above
# [10] = target: D(4) dopamine receptor (Homo sapiens) (UniProt P21917); assay: Inhibition of D4 receptor (unknown origin); conditions: concentration not given here
# [11] = target: Alpha-2C adrenergic receptor (Homo sapiens, UniProt P18825); assay: Binding affinity to alpha2c (unknown origin) assessed as inhibition constant
# [12] = target: 5-hydroxytryptamine receptor 1B (Homo sapiens, UniProt P28222); assay: Inhibition of 5HT1B receptor (unknown origin); conditions: concentration not given here
# [13] = target: 5-hydroxytryptamine receptor 1E (Homo sapiens, UniProt P28566); assay: Inhibition of 5HT1E receptor (unknown origin); conditions: concentration not given here
# [14] = target: Sigma intracellular receptor 2 (Homo sapiens, UniProt Q5BJF2); assay: Binding affinity to sigma 2 receptor (unknown origin) assessed as inhibition constant
# Sequence of Sigma intracellular receptor 2 (Q5BJF2 whole entry): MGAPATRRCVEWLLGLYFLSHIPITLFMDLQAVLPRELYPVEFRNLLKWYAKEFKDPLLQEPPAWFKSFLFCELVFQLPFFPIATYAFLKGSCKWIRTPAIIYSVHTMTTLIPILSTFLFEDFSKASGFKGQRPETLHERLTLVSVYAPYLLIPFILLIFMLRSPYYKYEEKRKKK
# Sequence of 5-hydroxytryptamine receptor 3A (P46098 whole entry): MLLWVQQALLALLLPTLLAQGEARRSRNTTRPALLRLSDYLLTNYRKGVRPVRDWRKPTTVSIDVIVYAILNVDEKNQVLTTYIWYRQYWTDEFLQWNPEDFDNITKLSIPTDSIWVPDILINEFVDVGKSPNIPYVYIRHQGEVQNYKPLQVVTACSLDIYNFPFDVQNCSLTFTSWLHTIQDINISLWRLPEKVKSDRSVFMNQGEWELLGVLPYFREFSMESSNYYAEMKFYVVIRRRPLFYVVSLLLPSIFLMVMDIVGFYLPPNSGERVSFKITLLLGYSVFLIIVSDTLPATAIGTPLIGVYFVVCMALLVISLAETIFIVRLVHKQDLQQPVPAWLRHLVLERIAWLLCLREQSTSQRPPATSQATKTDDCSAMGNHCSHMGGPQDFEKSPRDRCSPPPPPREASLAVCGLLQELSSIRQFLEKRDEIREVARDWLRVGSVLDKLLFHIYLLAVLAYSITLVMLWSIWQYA
# Sequence of 5-hydroxytryptamine receptor 3A (Homo sapiens) (P46098 whole entry): as above
# Sequence of D(4) dopamine receptor (Homo sapiens) (P21917 whole entry): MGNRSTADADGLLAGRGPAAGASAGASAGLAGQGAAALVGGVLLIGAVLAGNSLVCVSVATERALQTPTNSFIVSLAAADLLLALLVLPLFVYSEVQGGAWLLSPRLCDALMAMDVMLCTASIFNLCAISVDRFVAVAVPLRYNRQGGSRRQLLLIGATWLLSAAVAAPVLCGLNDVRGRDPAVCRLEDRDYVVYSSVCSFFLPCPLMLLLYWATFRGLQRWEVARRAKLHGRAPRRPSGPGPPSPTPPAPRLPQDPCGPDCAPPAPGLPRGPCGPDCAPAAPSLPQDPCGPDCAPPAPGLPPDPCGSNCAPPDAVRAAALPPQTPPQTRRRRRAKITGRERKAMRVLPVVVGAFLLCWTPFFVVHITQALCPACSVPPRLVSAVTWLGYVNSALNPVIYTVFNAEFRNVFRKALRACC
# Sequence of D(4) dopamine receptor (P21917 whole entry): as above
# Sequence of 5-hydroxytryptamine receptor 1B (P28222 whole entry): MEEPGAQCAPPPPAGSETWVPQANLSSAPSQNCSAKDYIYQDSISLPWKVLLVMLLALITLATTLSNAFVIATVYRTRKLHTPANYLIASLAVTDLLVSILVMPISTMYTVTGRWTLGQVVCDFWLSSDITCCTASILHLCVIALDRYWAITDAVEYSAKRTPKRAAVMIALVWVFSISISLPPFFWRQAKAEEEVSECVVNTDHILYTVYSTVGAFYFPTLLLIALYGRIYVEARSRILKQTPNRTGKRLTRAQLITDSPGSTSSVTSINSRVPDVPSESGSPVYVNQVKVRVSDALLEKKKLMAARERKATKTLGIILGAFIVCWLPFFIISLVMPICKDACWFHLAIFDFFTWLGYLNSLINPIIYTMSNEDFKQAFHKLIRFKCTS
# Sequence of D(3) dopamine receptor (P35462 whole entry): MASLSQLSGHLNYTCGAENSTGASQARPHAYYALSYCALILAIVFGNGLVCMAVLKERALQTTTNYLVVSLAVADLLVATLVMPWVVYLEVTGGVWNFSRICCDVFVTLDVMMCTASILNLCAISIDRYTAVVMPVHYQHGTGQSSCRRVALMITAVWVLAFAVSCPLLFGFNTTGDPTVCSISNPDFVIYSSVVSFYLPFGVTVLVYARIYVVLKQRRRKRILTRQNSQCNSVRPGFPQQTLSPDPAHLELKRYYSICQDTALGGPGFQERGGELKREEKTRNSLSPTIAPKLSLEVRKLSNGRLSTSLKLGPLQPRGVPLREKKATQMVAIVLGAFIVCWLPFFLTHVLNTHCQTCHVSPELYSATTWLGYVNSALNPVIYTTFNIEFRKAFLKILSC
# Sequence of 5-hydroxytryptamine receptor 1E (P28566 whole entry): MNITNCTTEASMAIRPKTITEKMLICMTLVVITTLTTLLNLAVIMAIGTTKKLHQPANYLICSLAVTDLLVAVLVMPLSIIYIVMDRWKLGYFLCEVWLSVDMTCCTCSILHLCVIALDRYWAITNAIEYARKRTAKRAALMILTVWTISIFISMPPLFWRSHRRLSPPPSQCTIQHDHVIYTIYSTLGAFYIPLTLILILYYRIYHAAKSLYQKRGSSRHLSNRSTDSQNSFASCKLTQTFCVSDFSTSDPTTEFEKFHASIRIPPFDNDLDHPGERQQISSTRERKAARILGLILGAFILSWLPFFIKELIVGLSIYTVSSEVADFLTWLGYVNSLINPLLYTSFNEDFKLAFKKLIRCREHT
# Sequence of Sigma non-opioid intracellular receptor 1 (Q99720 whole entry): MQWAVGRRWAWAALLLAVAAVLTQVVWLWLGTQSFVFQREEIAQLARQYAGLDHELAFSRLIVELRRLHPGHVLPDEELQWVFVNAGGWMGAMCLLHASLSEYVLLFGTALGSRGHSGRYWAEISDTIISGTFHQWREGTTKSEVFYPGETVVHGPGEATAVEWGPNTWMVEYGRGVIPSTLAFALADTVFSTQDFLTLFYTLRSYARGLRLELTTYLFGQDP
# Sequence of Alpha-2C adrenergic receptor (P18825 whole entry): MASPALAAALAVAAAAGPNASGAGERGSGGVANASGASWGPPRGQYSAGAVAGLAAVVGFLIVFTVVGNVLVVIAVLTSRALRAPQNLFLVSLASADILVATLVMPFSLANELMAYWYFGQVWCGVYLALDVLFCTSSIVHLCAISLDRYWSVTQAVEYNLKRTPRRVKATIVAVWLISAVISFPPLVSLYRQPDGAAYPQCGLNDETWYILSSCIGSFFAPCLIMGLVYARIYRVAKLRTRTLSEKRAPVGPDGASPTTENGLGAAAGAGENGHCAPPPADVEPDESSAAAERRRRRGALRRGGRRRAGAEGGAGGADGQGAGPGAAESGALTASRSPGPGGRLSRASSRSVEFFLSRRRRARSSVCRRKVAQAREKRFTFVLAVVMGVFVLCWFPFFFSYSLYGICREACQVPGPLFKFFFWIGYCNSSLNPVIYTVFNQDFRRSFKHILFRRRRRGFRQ
"inhibition ([1]; filed as agonist, concentration not given here) [%]",Ki [2] [nM],inhibition [3] [%],Ki [4] [nM],Ki [5] [nM],inhibition [6] [%],inhibition [7] [%],Ki [1] [nM],inhibition [8] [%],Ki [9] [nM],inhibition [10] [%],Ki [11] [nM],inhibition [12] [%],inhibition [13] [%],Ki [14] [nM],Compound
< 50,609,< 50,2790,1250,< 50,–,–,–,–,–,–,–,–,–,COc1ccc(C2NCCc3c2[nH]c2ccc(Cl)cc32)c(O)c1 (centres undefined)
–,362,< 50,–,–,< 50,< 50,1840,< 50,–,–,–,–,–,–,COc1ccc(C2NCCc3c2[nH]c2ccc(F)cc32)c(O)c1 (centres undefined)
–,–,< 50,2780,–,–,–,–,–,1470,< 50,–,–,–,–,COc1cc(OC)c(C2NCCc3c2[nH]c2ccc(Cl)cc32)cc1OC (centres undefined)
–,–,< 50,–,–,–,< 50,–,–,961,< 50,964,< 50,< 50,2330,COc1cc(OC)c(C2NCCc3c2[nH]c2ccc(F)cc32)cc1OC (centres undefined)

# — ChEMBL document CHEMBL5131517 (ACS Med Chem Lett, 2022)
